In PubChem BioAssay AID743394 (Broad Institute, 2014) one finds activation data, which are given here for 77 compounds.

The structures appear in SMILES notation. Calls of active or inactive are those of the source.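 How the source made its calls: active means 40% activation versus positive control reached by fitted dose-response curve at or below highest valid tested dose; inconclusive means poor fit quality, or flat fit with activation between 30% and 70%; inactive means the rest.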

A short description of one experiment: Xi-linked GFP reactivating small molecules – imaging, 68-5-11 mouse fibroblasts, cherry-pick, dose response (AID 743394).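 Further: sensitizer 5-aza-dC present in the wells at 0.5 mM final.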 The settings on record: 68-5-11 mouse fibroblast XiGFP reporter, % GFP-positive imaging, 3 d; at 19.5 µM (top of the series).
With `Cc1cc(/C=C2/C(=O)NC(=O)N(Cc3ccco3)C2=O)c(C)n1-c1ccccc1O`, the activation is -0.049% (inactive).

The experiment is the same for the next values; noted with them: 68-5-11 mouse fibroblast XiGFP reporter, % GFP-positive imaging, 3 d; at 19.5 µM (top of the series); cells co-treated with 5-aza-dC sensitizer; scaled: neutral wells 0, ellipticine wells 100.
Take `CC(C)NC(=O)N(C)C[C@@H]1OCCCC[C@H](C)Oc2ccc(NC(=O)Nc3ccc(C(F)(F)F)cc3)cc2C(=O)N([C@H](C)CO)C[C@@H]1C`: the activation was 0.005% (inactive).

For the compound `COc1ccccc1OCCOc1ccc(/C=C2\C(=N)N3N=C(S(C)(=O)=O)SC3=NC2=O)cc1`, the activation was 0.042% (inactive).

Take `C[C@H]1CN([C@@H](C)CO)C(=O)c2cc(NC(=O)CCCCCC(=O)Nc3ccccc3N)ccc2O[C@H]1CN(C)C(=O)Nc1ccccc1`: the activation was 0.04% (inactive).

On to `CN1CCN(S(=O)(=O)c2ccc(C#N)cc2)C(c2ccccc2)C1` (configuration not stated), for which the activation was 0.227% (inactive).

Consider `Cc1ccc(O)c(N=Nc2ccc(S(=O)(=O)N3CCCC3)cc2)c1`, for which the activation was 0.067% (inactive).

Turning to `O=C(C[C@H]1CC[C@H]2[C@@H](COC[C@@H](O)CN2C(=O)Nc2ccccc2)O1)NCCc1ccncc1`, the activation was 0.207% (inactive).

Turning to `COc1ccc(NS(=O)(=O)c2ccc(NC(C)=O)cc2)nn1`, the activation was 0.042% (inactive).

Turning to `O=C(Nc1cccc(S(=O)(=O)NC2=NCCC2)c1)C1CC(=O)N(c2ccc3c(c2)OCCO3)C1` (configuration not stated), the activation is 0.339% (inactive).

Regarding `C[C@@H]1CN(C)C(=O)Cc2cc(N(C)C)ccc2O[C@@H]1CN(C)S(C)(=O)=O`, the activation was 0.115% (inactive).

Turning to `Cc1ccc(/C=C/C(=O)N2CCN(S(=O)(=O)/C=C/c3ccccc3)CC2)o1`, the activation is 0.382% (inactive).

Consider `COc1cccc(NC(=O)N(C)C[C@@H]2Oc3cc(Br)ccc3S(=O)(=O)N([C@@H](C)CO)C[C@H]2C)c1`, for which the activation was -0.016% (inactive).

On to `COc1ccc(OCCN2CCC(C(=O)NC(c3ccc(C)cc3)c3ccccn3)CC2)cc1` (configuration not stated), for which the activation was 0.883% (inactive).

Take `COc1cc(/C=C/C(=O)c2ccc3c(c2)OCCO3)cc(Br)c1OCC(=O)N(C)C`: the activation is -0.06% (inactive).

Consider `CC1C=NC(S(=O)(=O)N2CC[C@@H]3[C@@H](CO)N(C)c4ccc(-c5ccccc5)cc4[C@@H]32)=N1` (some centres not stated), for which the activation was 0.053% (inactive).

As for `COc1ccc(C2C(=O)c3ccccc3C2=Nc2ccc(Br)cc2)cc1` (configuration not stated), the activation is -0.066% (inactive).

In the case of `CC(C)N1C(=O)C(=O)N(CC(=O)N2CCc3ccccc32)C1=O`, the activation was -0.031% (inactive).

Consider `CC(=NNC(=S)Nc1cccc(Cl)c1)c1ccccn1`, for which the activation was -0.035% (inactive).

As to `O=C1N(c2ccccc2)C[C@@H]2C[C@@H](c3cc4ccccc4o3)N3CCC[C@@]123`, the activation was -0.008% (inactive).

Consider `CC(Sc1nnc(Cc2ccccc2)o1)C(=O)Nc1ccccc1[N+](=O)[O-]` (configuration not stated), for which the activation was -0.032% (inactive).

Regarding `COc1ccc2c3c(n(C)c2c1)[C@@H](CO)N(Cc1ccccc1OC)CC31CCN(C)CC1`, the activation was 0.213% (inactive).

Regarding `CC(=O)N/C(N)=N/c1nc(=O)c2ccccc2s1`, the activation is -0.044% (inactive).

With `CCc1ccc(NS(=O)(=O)c2ccc3[nH]cc(C(=O)N4CCc5ccccc54)c(=O)c3c2)cc1`, the activation was -0.01% (inactive).

Consider `NC(=O)c1sc2nc3c(cc2c1N)CCCCCC3`, for which the activation is 0.065% (inactive).

For the compound `CCOC(=O)C1=c2/c(=C/c3ccncc3)c(N)c(C(=O)OC)n2C(=O)C(c2ccncc2)S1` (configuration not stated), the activation was 0.188% (inactive).

With `CCOc1ccc(C(Nc2cccnc2)c2cc(Cl)c3cccnc3c2O)cc1` (configuration not stated), the activation was 8.68% (inactive).

For `O=C(Nc1ccccc1N1CCCCC1)c1cnccn1`, the activation was -0.052% (inactive).

`CCc1ccc(C(=O)NNc2ccc(S(N)(=O)=O)cc2)cc1`: the activation was -0.007% (inactive).

In the case of `Nc1nnc(SCC(=O)c2ccc([N+](=O)[O-])cc2)s1`, the activation was 0.961% (inactive).

Regarding `Cc1cccc2sc(N(CCCN(C)C)C(=O)CN3C(=O)c4ccccc4C3=O)nc12`, the activation is -0.047% (inactive).

As to `CC(C)n1c(NCc2cc(Cl)ccc2O)nc2ccccc21`, the activation was -0.029% (inactive).

As for `Cc1ccc(-c2csc(NC(=O)c3cccc([N+](=O)[O-])c3C(=O)O)n2)cc1`, the activation is -0.047% (inactive).

Regarding `CN(c1ccccc1)S(=O)(=O)c1ccc(C(=O)NCC(c2ccco2)N2CCCCC2)cc1` (configuration not stated), the activation was -0.009% (inactive).

In the case of `COC(=O)c1ccc(CNC(=O)COC(=O)c2cc(Cl)ccc2O)cc1`, the activation was 0.385% (inactive).

`CCc1ccc(NS(=O)(=O)c2cccc3nonc23)cc1`: the activation is -0.121% (inactive).

As for `C=CCn1c(SCC(=O)N(CC)C2CCS(=O)(=O)C2)nc2sc3c(c2c1=O)CCC3` (configuration not stated), the activation was -0.061% (inactive).

For `Nc1[nH]c(=O)nc(Nc2ccccc2)c1N=O`, the activation was -0.037% (inactive).

Regarding `O=C1CCCC(O)=C1Sc1cc(Cl)c(Cl)cc1Cl`, the activation was 0.118% (inactive).

In the case of `CC(C)c1cc(C(=O)N/N=C/c2cccnc2)cs1`, the activation is 0.54% (inactive).

`COc1ccc(CCCc2nc3ccccc3[nH]2)cc1`: the activation was -0.001% (inactive).

Regarding `O=C(O)c1ccccc1NS(=O)(=O)c1ccc(N/N=C/c2cccc(O)c2O)c([N+](=O)[O-])c1`, the activation was -0.035% (inactive).

As to `COc1cccc(CNC(=O)c2cc(S(=O)(=O)N3CCCC3)cn2C)c1`, the activation is 0.095% (inactive).

Turning to `CCCNNC(=O)C(O)(c1ccccc1)c1ccccc1`, the activation was -0.099% (inactive).

For `Cc1ccc(-c2nc3ccc(Br)cn3c2Cc2ccccc2C(F)(F)F)cc1`, the activation was 0.06% (inactive).

As to `CCOc1ccc(N2C(=O)CC(Sc3nc(O)c(CC)c(=O)[nH]3)C2=O)cc1` (configuration not stated), the activation was 0.001% (inactive).

With `COc1ccccc1NC(=O)N[C@H]1C=C[C@@H](CC(=O)N[C@@H](C)c2ccccc2)O[C@@H]1CO`, the activation is -0.011% (inactive).

On to `CO[C@H]1CN(C)C(=O)c2ccc(NC(=O)Cc3ccccc3)cc2OC[C@@H](C)N(C)C[C@H]1C`, for which the activation was -0.035% (inactive).

In the case of `Nc1nc(C2CCOCC2)cs1`, the activation was -0.032% (inactive).

On to `COC(=O)C(C(C)C)N1CCc2c(C)nc3c(C#N)cnn3c21` (configuration not stated), for which the activation was 0.052% (inactive).

With `Cc1ccc(NC(=O)c2cc(N3C(=O)C=CC3=O)ccc2N2CCOCC2)cc1Cl`, the activation is -0.024% (inactive).

With `CN(C)c1ccc(NC2=C(Cl)C(=O)c3ccccc3C2=O)cc1`, the activation is -0.053% (inactive).

As to `CCOC(=O)CSc1nnc(CCCCCN2C(=O)c3cccc4cccc(c34)C2=O)o1`, the activation was 0.013% (inactive).

Regarding `CN(CC(=O)Nc1ccc(Cl)c(Cl)c1)CC(=O)Nc1ccc2c(c1)OCO2`, the activation was -0.047% (inactive).

For `C[C@@H]1CCCCO[C@H](CN(C)C(=O)Nc2ccc(C(F)(F)F)cc2)[C@H](C)CN([C@H](C)CO)C(=O)c2cc(NC(=O)CCC(F)(F)F)ccc2O1`, the activation was 0.24% (inactive).

Turning to `CCC(C)c1nc2ccsc2c(N2CCOC2=O)c1-c1ccccc1` (configuration not stated), the activation is -0.032% (inactive).

As to `COc1ccc(CCNC(=O)c2ccc([N+](=O)[O-])cc2)cc1`, the activation was -0.024% (inactive).

In the case of `COc1ccc(CN(C)Cc2nc(Cc3ccccc3Cl)no2)cc1OC`, the activation was -0.032% (inactive).

In the case of `CN(Cc1cccs1)C(=O)Cc1c[nH]c2ccccc12`, the activation is -0.024% (inactive).

As to `CCN1CCN(c2cc3nc(C)n(Cc4ccccc4)c(=O)c3cc2NC(=O)c2ccccc2F)CC1`, the activation was -0.127% (inactive).

On to `C[C@H](CO)N1C[C@H](C)[C@H](CN(C)Cc2ccccc2)Oc2ccc(NS(C)(=O)=O)cc2C1=O`, for which the activation was -0.035% (inactive).

As to `Cc1ccc(S(=O)(=O)N(C)C[C@H]2Oc3ccc(NC(=O)Nc4ccccc4)cc3CC(=O)N([C@H](C)CO)C[C@@H]2C)cc1`, the activation was -0.035% (inactive).

Consider `CN(C)CC(=O)N1CC2(C1)[C@@H](c1ccccc1)[C@H](CO)N2C(=O)C1CC1`, for which the activation was -0.015% (inactive).

Consider `O=C(N/N=C/c1ccc(Br)s1)c1ccc([N+](=O)[O-])cc1`, for which the activation was 1.59% (inactive).

In the case of `Cc1ccc2[nH]c(C(=O)O)c(NC(=O)[C@@H]3C[C@@H]3c3ccccc3)c2c1`, the activation is -0.035% (inactive).

As to `COc1ccc(/C=c2/sc3nc(-c4ccccc4)c(-c4ccccc4)n3c2=O)cc1`, the activation was -0.002% (inactive).

On to `Cc1ccsc1C1Nc2ccccc2-c2nc3ccccc3n21` (configuration not stated), for which the activation was -0.047% (inactive).

As for `CSc1ccc(CNCC2CCCO2)cc1` (configuration not stated), the activation was 0.842% (inactive).

For the compound `Nc1nc(Nc2ccc(Cl)cc2)c(NC=O)c(=O)[nH]1`, the activation was -0.075% (inactive).

Regarding `COc1ccc(COc2ccccc2C(=O)NCc2ccccc2)cc1F`, the activation is -0.07% (inactive).

On to `O=C(COC(=O)c1ccc(NS(=O)(=O)c2cccs2)cc1O)NC1CCCCC1`, for which the activation is 0.098% (inactive).

Take `O=c1c2cc(-c3ccccc3)sc2nc2n1N=C(c1ccccc1)CS2`: the activation was 1.54% (inactive).

Regarding `CC(C)C#Cc1ccc([C@@H]2[C@@H](CO)N3C(=O)CN(C(=O)c4ccc5c(c4)OCO5)C[C@H]23)cc1`, the activation was 0.09% (inactive).

Turning to `Cc1ccc(Cl)cc1NC(=O)CCC(=O)O`, the activation is -0.002% (inactive).

For `Cn1c(=O)[nH]c(=O)c2c1nc(SCCN1CCOCC1)n2CCCc1ccccc1`, the activation is -0.047% (inactive).

As for `COc1cccc(CNC(=O)CNC(=S)N(Cc2ccccc2)Cc2ccccc2F)c1`, the activation was -0.015% (inactive).

For `CCN(CC(=O)Nc1sc2c(c1C#N)CCCC2)CC(=O)NC1CCS(=O)(=O)C1` (configuration not stated), the activation is -0.032% (inactive).

The same experiment, now with this note: 68-5-11 mouse fibroblast XiGFP reporter, % GFP-positive imaging, 3 d; at 21 µM (top of the series); cells co-treated with 5-aza-dC sensitizer; scaled: neutral wells 0, ellipticine wells 100.
Turning to `Cc1ccc(-c2ccccc2[C@@H]2[C@H](C#N)N(S(C)(=O)=O)[C@H]2CO)cc1`, the activation is 0.241% (inactive).
